{"source": "paper PMC3726442", "about": "(PLoS ONE, 2013)", "key": {"[1]": {"experiment": "Plasma concentrations of tamoxifen and its metabolites in breast cancer patients on tamoxifen, by HPLC-tandem mass spectrometry", "excerpt": "One hundred and thirty five Caucasian patients of Spanish descent recently diagnosed with BC were recruited from the center Fundación Tejerina-Centro de Patología de la Mama (Madrid). Premenopausal and postmenopausal women were enrolled when started on TAM as standard adjuvant therapy after undergoing primary surgery, radiation and adjuvant chemotherapy. Patients were excluded if they had started TAM therapy simultaneously with either adjuvant chemotherapy or adjuvant radiation therapy (or both) or if they were undergoing other adjuvant endocrine therapies. Patients who were pregnant or breast-feeding were also excluded from the study. […] Blood samples were collected within 3 to 60 months of initiating TAM treatment.\nVenous blood was collected from all 135 subjects before taking their daily 20- mg dose of TAM. Ten milliliters of heparin plasma were separated by centrifugation and immediately stored at −20°C until analysis. In addition, one milliliter of an EDTA blood sample was taken for subsequent DNA extraction and genotyping. DNA was isolated from peripheral leukocytes using a QIAamp DNA Blood Mini Kit® (Qiagen, Madrid, Spain) according to the manufacturer’s instructions. The DNA concentration was determined and adjusted to 2–20 ng/ µL.\nTAM and its metabolites were separated and quantified by high-pressure liquid chromatography-tandem mass spectrometry using an Agilent HPLC 1200 system. HPLC experiments were performed using a binary pump G1312A, a G1316A column oven, G1379B degasser and an automatic injector H-ALS G1367B. Mobile phase A and phase B consisted of 0.1% formic acid in water and acetonitrile, respectively. Mobile phases A and B were pumped through a ZORBAX Eclipse XDB-C18 column (150 mm×2.1 mm I.D., 3.5 µm, Agilent USA) at a flow rate of 0.2 mL/min using the gradient shown in Table 1. Separation was conducted at 30°C. 15- µL aliquots were injected and the autosampler needle was rinsed in acetonitrile/water solution (1∶1). The total run time was 20 min. During the first 4.0 and last 2.0 min, the eluate was removed using a divert valve to avoid endogenous compounds entering the mass spectrometer.\nAs a detector, we used an A 6410 Triple Quadrupole mass spectrometer (Agilent Technologies, USA) equipped with a heated electrospray ionization source (Thermo Fisher Scientific, Waltham, MA, USA) operating in positive ion mode. For quantification, multiple reaction monitoring (MRM) chromatograms were acquired using Mass Hunter software version B.01.04 (Agilent Technologies, USA). Positive ions were created at atmospheric pressure. Quadrupoles operated at unit resolution (0.7 Da).\nA 300- µL volume of 1% formic acid in acetonitrile containing internal standards was added to a 100- µL serum aliquot. After vortexing and centrifugation, the clear supernatant was transferred to a HybridSPE column (Supelco) and the eluents stored at 2–8°C until analysis. Samples were analyzed in triplicate.\nDescriptive statistics were calculated using standard methods. Metabolic ratios were calculated as the concentration of substrate/concentration of metabolite. The non-normal distribution of data was confirmed by the Kolmogorov-Smirnov test. Levels of TAM, metabolites and ratios between genotype groups were compared using Wilcoxon-Mann-Whitney or Kruskal-Wallis tests. All statistical tests (two-sided) were performed using SPSS software (version 18.0 SPSS, Chicago, IL). Significance was set at a p<0.05."}, "CYP3A4/5": {"test_system": "CYP3A4/5", "design": "method as in PMID 19088019", "settings": "major primary metabolite, CYP3A4/5-mediated; cited from earlier work"}, "[2]": {"settings": "all samples analyzed, n = 125, before daily 20 mg TAM dose"}}}
{"smiles": "CC/C(=C(\\c1ccccc1)c1ccc(OCCNC)cc1)c1ccccc1", "note": "[N-desmethyl-tamoxifen]", "values": [{"measurement": "mean plasma concentration (±SD)", "setting": "[1]; [2]", "value": "450.54 ± 188.79", "unit": "ng/mL"}, {"measurement": "median plasma concentration", "setting": "[1]; [2]", "value": 418.46, "unit": "ng/mL"}, {"measurement": "mean concentration relative to the TAM concentration", "setting": "[1]; all samples, n = 125", "value": "over 2 times"}, {"measurement": "plasma concentration, mean ±SD", "setting": "[1]; genotype SULT1A1 *2/*2, n = 15", "value": "459.42 ± 160.94", "unit": "ng/mL"}, {"measurement": "plasma concentration, median", "setting": "[1]; genotype SULT1A1 *2/*2, n = 15", "value": 432.49, "unit": "ng/mL"}, {"measurement": "plasma concentration, range", "setting": "[1]; genotype SULT1A1 *2/*2, n = 15", "value": "(212.67–782.92) ng/mL"}, {"measurement": "plasma concentration, mean ±SD", "setting": "[1]; genotype SULT1A1 wt/*2, n = 46", "value": "441.63 ± 176.28", "unit": "ng/mL"}, {"measurement": "plasma concentration, median", "setting": "[1]; genotype SULT1A1 wt/*2, n = 46", "value": 418.46, "unit": "ng/mL"}, {"measurement": "plasma concentration, range", "setting": "[1]; genotype SULT1A1 wt/*2, n = 46", "value": "(196.74–1191.13) ng/mL"}, {"measurement": "plasma concentration, mean ±SD", "setting": "[1]; genotype SULT1A1 wt/wt, n = 60", "value": "458.09 ± 209.96", "unit": "ng/mL"}, {"measurement": "plasma concentration, median", "setting": "[1]; genotype SULT1A1 wt/wt, n = 60", "value": 411.53, "unit": "ng/mL"}, {"measurement": "plasma concentration, range", "setting": "[1]; genotype SULT1A1 wt/wt, n = 60", "value": "(35.96–1210.09) ng/mL"}, {"measurement": "plasma concentration, mean ±SD", "setting": "[1]; genotype SULT1A2 *2/*2, n = 16", "value": "453.17 ± 128.87", "unit": "ng/mL"}, {"measurement": "plasma concentration, median", "setting": "[1]; genotype SULT1A2 *2/*2, n = 16", "value": 427.03, "unit": "ng/mL"}, {"measurement": "plasma concentration, range", "setting": "[1]; genotype SULT1A2 *2/*2, n = 16", "value": "(238.36–782.92) ng/mL"}, {"measurement": "plasma concentration, mean ±SD", "setting": "[1]; genotype SULT1A2 *2/*3, n = 13", "value": "478.66 ± 162.35", "unit": "ng/mL"}, {"measurement": "plasma concentration, median", "setting": "[1]; genotype SULT1A2 *2/*3, n = 13", "value": 527.52, "unit": "ng/mL"}, {"measurement": "plasma concentration, range", "setting": "[1]; genotype SULT1A2 *2/*3, n = 13", "value": "(228.81–676.02) ng/mL"}, {"measurement": "plasma concentration, mean ±SD", "setting": "[1]; genotype SULT1A2 *3/*3, n = 5", "value": "478.49 ± 198.83", "unit": "ng/mL"}, {"measurement": "plasma concentration, median", "setting": "[1]; genotype SULT1A2 *3/*3, n = 5", "value": 485.02, "unit": "ng/mL"}, {"measurement": "plasma concentration, range", "setting": "[1]; genotype SULT1A2 *3/*3, n = 5", "value": "(242.88–768.62) ng/mL"}, {"measurement": "plasma concentration, mean ±SD", "setting": "[1]; genotype SULT1A2 wt/*2, n = 33", "value": "478.01 ± 247.44", "unit": "ng/mL"}, {"measurement": "plasma concentration, median", "setting": "[1]; genotype SULT1A2 wt/*2, n = 33", "value": 399.40, "unit": "ng/mL"}, {"measurement": "plasma concentration, range", "setting": "[1]; genotype SULT1A2 wt/*2, n = 33", "value": "(212.67–1210.09) ng/mL"}, {"measurement": "plasma concentration, mean ±SD", "setting": "[1]; genotype SULT1A2 wt/*3, n = 16", "value": "425.36 ± 207.64", "unit": "ng/mL"}, {"measurement": "plasma concentration, median", "setting": "[1]; genotype SULT1A2 wt/*3, n = 16", "value": 324.21, "unit": "ng/mL"}, {"measurement": "plasma concentration, range", "setting": "[1]; genotype SULT1A2 wt/*3, n = 16", "value": "(167.40–952.85) ng/mL"}, {"measurement": "plasma concentration, mean ±SD", "setting": "[1]; genotype SULT1A2 wt/wt, n = 38", "value": "428.02 ± 162.17", "unit": "ng/mL"}, {"measurement": "plasma concentration, median", "setting": "[1]; genotype SULT1A2 wt/wt, n = 38", "value": 413.16, "unit": "ng/mL"}, {"measurement": "plasma concentration, range", "setting": "[1]; genotype SULT1A2 wt/wt, n = 38", "value": "(35.96–847.98) ng/mL"}, {"measurement": "plasma concentration, mean ±SD", "setting": "[1]; genotype SULT1E1 *2/*2, n = 5", "value": "455.57 ± 104.52", "unit": "ng/mL"}, {"measurement": "plasma concentration, median", "setting": "[1]; genotype SULT1E1 *2/*2, n = 5", "value": 497.51, "unit": "ng/mL"}, {"measurement": "plasma concentration, range", "setting": "[1]; genotype SULT1E1 *2/*2, n = 5", "value": "(311.12–550.12) ng/mL"}, {"measurement": "plasma concentration, mean ±SD", "setting": "[1]; genotype SULT1E1 wt/*2, n = 28", "value": "462.59 ± 167.53", "unit": "ng/mL"}, {"measurement": "plasma concentration, median", "setting": "[1]; genotype SULT1E1 wt/*2, n = 28", "value": 426.41, "unit": "ng/mL"}, {"measurement": "plasma concentration, range", "setting": "[1]; genotype SULT1E1 wt/*2, n = 28", "value": "(196.74–768.62) ng/mL"}, {"measurement": "plasma concentration, mean ±SD", "setting": "[1]; genotype SULT1E1 wt/wt, n = 88", "value": "448.30 ± 202.82", "unit": "ng/mL"}, {"measurement": "plasma concentration, median", "setting": "[1]; genotype SULT1E1 wt/wt, n = 88", "value": 399.40, "unit": "ng/mL"}, {"measurement": "share of primary TAM oxidation", "setting": "CYP3A4/5", "value": 90, "unit": "%"}]}
